Experimental data as given in US8338473B2, “Derivatives of psammaplin A, a method for their synthesis and their uses for the prevention or treatment of cancer” (Centre National de la Recherche Scientifique, priority 2007, dated 2012).

How the values were obtained:
[1] = tested on: DNA methyltransferase (DNMT); test: DNMT enzymatic in vitro assay; format: biochemical; conditions: 1.5 and 50 μM
Experimental: (§1) FIG. 2: a) Methylation specific PCR for the RARβ gene after 16 and 24 hrs of treatment with the indicated compounds; b) Methylation specific PCR for the p16 gene after 24 hrs of the indicated treatments. Samples are representative of real duplicates; c) p16 expression levels in U937 cells after 24 hrs with the indicated treatments; d) DNMT enzymatic in vitro assay carried out with 1.5 and 50 μM of the indicated compounds;

human recombinant SIRT1 = human recombinant SIRT1 (Homo sapiens, UniProt Q96EB6); test: SIRT activity assay, SIRT1; format: biochemical
Chain of human recombinant SIRT1 (Q96EB6 whole entry): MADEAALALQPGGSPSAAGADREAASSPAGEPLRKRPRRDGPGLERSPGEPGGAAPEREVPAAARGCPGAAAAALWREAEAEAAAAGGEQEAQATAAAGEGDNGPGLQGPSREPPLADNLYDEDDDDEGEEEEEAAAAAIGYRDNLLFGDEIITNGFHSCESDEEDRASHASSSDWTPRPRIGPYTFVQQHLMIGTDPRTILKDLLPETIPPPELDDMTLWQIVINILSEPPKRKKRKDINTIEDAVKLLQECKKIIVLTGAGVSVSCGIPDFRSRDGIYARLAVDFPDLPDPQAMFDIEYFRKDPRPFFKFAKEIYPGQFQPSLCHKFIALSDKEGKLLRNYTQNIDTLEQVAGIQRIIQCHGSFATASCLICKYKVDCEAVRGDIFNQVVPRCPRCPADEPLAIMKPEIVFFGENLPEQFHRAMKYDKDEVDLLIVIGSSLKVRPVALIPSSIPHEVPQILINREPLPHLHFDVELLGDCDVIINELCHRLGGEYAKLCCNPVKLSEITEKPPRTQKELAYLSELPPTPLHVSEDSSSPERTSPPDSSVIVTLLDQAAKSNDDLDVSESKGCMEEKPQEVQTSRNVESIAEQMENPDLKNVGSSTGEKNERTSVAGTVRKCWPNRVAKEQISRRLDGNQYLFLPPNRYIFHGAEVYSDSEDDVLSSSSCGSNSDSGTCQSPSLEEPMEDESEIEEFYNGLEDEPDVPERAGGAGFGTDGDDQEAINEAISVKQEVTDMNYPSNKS
Experimental: FIG. 13A: % of SIRT1 and SIRT2 activity with controls, sodium suramine, a sirtuin inhibitor, and resveratrol a SIRT1 activator, and with UVI5008 at concentrations of 50 μM and 5 μM.
The SIRT activity assay was performed using the human recombinant SIRT1 and SIRT2. SIRT1 (1 U/well) or SIRT2 (5 U/well), respectively, were incubated (37° C. for 1 h) with the SIRT1/2 substrate (corresponding to a p53 acetylated peptide) in the presence of NAD^+ and various concentrations of tested compounds (sirtuins activators or inhibitors). Activity was measured as fluorescence intensity. As internal controls, sodium suramin, a sirtuin inhibitor, and resveratrol, a SIRT1 activator, have been included. The fluorescence was measured on a fluorometric reader (Inphinite 200 TECAN) with excitation set at 360 nm and emission detection set at 460 nm

HDAC6 = molecular target: T1, HDAC6 (Homo sapiens, UniProt Q9UBN7); test: Alpha tubulin acetylation in U937 cells (HDAC6 readout); format: cell-based; conditions: U937, 6 and 16 hrs
T1 construct: Tubuline acetylation and p21 expression levels in U937 cells after 24 hrs with the indicated treatments; endogenous in cells; host or cells: U937
T1 sequence (Q9UBN7 whole entry): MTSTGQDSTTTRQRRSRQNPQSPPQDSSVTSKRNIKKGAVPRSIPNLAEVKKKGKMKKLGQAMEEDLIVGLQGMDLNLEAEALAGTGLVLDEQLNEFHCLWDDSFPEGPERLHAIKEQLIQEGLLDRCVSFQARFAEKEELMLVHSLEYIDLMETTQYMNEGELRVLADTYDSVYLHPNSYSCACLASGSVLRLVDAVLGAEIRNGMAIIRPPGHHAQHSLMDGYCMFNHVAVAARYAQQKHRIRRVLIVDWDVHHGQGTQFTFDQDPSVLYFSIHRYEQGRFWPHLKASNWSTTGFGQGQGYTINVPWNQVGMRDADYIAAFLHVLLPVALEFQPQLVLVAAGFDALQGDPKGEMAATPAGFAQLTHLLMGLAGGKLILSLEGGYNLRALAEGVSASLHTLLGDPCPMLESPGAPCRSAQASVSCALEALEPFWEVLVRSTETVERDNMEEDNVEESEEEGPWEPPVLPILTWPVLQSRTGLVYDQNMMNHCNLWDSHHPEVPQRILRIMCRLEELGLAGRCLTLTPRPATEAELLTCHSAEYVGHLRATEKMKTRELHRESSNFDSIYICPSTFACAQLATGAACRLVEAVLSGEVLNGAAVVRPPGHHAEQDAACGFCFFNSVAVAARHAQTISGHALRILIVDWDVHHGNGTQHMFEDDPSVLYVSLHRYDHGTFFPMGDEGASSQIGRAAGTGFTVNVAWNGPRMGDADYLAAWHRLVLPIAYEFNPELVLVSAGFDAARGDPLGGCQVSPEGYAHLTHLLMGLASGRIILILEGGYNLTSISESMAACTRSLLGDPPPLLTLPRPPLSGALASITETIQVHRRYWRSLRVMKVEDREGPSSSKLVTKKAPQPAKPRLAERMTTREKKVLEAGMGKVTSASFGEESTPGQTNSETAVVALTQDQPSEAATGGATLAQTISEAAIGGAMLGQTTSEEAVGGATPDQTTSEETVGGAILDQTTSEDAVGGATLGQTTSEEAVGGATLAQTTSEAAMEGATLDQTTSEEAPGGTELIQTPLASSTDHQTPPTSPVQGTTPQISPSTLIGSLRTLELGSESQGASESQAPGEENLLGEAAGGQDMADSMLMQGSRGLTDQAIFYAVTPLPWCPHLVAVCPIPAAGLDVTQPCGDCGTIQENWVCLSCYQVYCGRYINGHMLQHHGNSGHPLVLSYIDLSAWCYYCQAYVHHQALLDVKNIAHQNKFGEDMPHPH
Experimental: FIG. 1: a) Cell cycle analysis of U937 cells treated for 30 hrs with the indicated compounds used at 1 and 5 μM; b) Caspase 3 apoptotic assay of the indicated compounds after 24 hrs of treatment in the U937 cells; c) Tubulin acetylation and p21 expression levels at 6 and 16 hrs after treatment with the indicated compounds; total tubulin expression levels are used for equal loading; d) Histone H3 acetylation and K9 H3 methylation expression levels at 6 and 16 hrs after treatment with the indicated compounds; total tubulin expression levels are used for equal loading; e) K9, K14, K18 histone H3 acetylation expression levels at 6 and 16 hrs after treatment with the indicated compounds; total ERKs expression levels are used for equal loading; f) HDAC1 enzymatic assay: IP-HDAC1 is incubated with the indicated inhibitors for 24 Hrs; activity is measured as ^3H-acetyl release; g) HDAC4 enzymatic assay: IP-HDAC4 is incubated with the indicated inhibitors for 24 hrs; activity is measured as ^3H-acetyl release. […]

[2] = tested on: prostate cancer cells (LnCap); test: Anti-proliferative and apoptogenic action in prostate cancer cells; format: cell-based; conditions: data not shown
p16INK4a = test: p16 expression levels in U937 cells; format: cell-based, human; conditions: U937, 24 hrs
Experimental: as §1
For the determination of p21^WAF1/CIP1 and p16^INK4 100 μg of total protein extracts were separated on a 15% polyacrylammide gels and blotted. Western blots were shown for p21 (Transduction Laboratories, dilution 1:500), p16 (Santa Cruz) and total ERKs (Santa Cruz) were used to normalise for equal loading. For alpha-tubulin acetylation 25 μg of total protein extracts were separated on a 10% polyacrylamide gels and blotted. Western blots were shown for acetylated alpha-tubulin (Sigma, dilution 1:500) and total ERKs (Santa Cruz) or total tubulin (Sigma) were used to normalise for equal loading.

histone H3, H3K56 = test: Post-translational modifications on histone proteins (mass spectrometry, SILAC); format: cell-based, human; conditions: U937 (and other) cells, 24 h, 5 μM
Experimental: U937 cells were grown in RPMI medium in the presence of lysine and arginine (‘light’) or istope versions, Arg10 and Lys8 (‘heavy’). […]. As controls, cell grown in heavy medium were treated for 24 h with DMSO. Light and heavy cells were 7.5×10^6 cells harvest and mixed in 1:1 ratio (total 15×10^6 cells). The cells were washed twice with PBS and the cell pellet was stored at −80° C.
Cells were resuspended in 750 μl Triton Extraction Buffer (TEB: PBS containing 0.5% Triton X 100 (v/v), 2 mM phenylmethylsulfonyl fluoride (PMSF) and 0.02% (w/v) NaN3) and lysed on ice for 10 min with gentle stirring. The lysate was centrifuged for 10 min at 6000 rpm and the supernatant discarded. The pellet was washed with 375 μl of TEB and peletted by centrifugation as before. Pellet is resuspended in 20 μl 250 mM HCl and acid extraction of the histones was performed o/n at 4° C.
Extracted histones were cleared by centrifugation and separated on a 15% acrylamide gel and the gel was stained with Coomassie. The gel region containing the histones was sliced, reduced and alkylated in gel. Proteins were digested o/n with trypsin (Promega). Peptides were eluted from the gel with trifluoroacetic acid. […]
U937 cells were treated with UVI5008 for 24 hrs and histones were acid extracted. Proteins were digested with trypsin and the peptides were analysed using a nanoLC that is online with a FT-ICR mass spectrometer. […]

HDAC1 = HDAC1 (Homo sapiens, UniProt Q13547); test: HDAC1 enzymatic assay (IP-HDAC1, 3H-acetyl release); format: biochemical; conditions: IP-HDAC1 incubated with inhibitor 24 hrs
Chain of HDAC1 (Q13547 whole entry, species assumed): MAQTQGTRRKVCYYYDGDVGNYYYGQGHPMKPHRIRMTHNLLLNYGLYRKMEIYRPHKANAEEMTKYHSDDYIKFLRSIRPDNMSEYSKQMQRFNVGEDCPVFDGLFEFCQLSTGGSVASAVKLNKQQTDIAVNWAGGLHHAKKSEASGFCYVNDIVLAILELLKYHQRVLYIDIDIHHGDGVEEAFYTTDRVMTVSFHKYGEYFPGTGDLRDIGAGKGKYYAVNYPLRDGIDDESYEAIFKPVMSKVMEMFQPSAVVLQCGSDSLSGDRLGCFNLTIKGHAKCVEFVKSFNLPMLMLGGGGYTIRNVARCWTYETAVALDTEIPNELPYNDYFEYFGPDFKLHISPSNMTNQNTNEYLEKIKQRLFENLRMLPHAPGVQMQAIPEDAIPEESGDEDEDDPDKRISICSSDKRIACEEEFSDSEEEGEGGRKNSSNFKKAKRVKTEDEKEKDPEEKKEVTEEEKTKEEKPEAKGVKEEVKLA
Experimental: FIG. 1: a) Cell cycle analysis of U937 cells treated for 30 hrs with the indicated compounds used at 1 and 5 μM; b) Caspase 3 apoptotic assay of the indicated compounds after 24 hrs of treatment in the U937 cells; c) Tubulin acetylation and p21 expression levels at 6 and 16 hrs after treatment with the indicated compounds; total tubulin expression levels are used for equal loading; d) Histone H3 acetylation and K9 H3 methylation expression levels at 6 and 16 hrs after treatment with the indicated compounds; total tubulin expression levels are used for equal loading; e) K9, K14, K18 histone H3 acetylation expression levels at 6 and 16 hrs after treatment with the indicated compounds; total ERKs expression levels are used for equal loading; f) HDAC1 enzymatic assay: IP-HDAC1 is incubated with the indicated inhibitors for 24 Hrs; activity is measured as ^3H-acetyl release; g) HDAC4 enzymatic assay: IP-HDAC4 is incubated with the indicated inhibitors for 24 hrs; activity is measured as ^3H-acetyl release.

**Q.** `O=C(NCCSSCCNC(=O)C(Cc1c[nH]c2ccc(Br)cc12)=NO)C(Cc1c[nH]c2ccc(Br)cc12)=NO` [UVI5008] was tested. Which DNMT inhibition [1] did it give?
**A.** nearly as active as RG108 albeit at higher concentrations

**Q.** And the IC50 (human recombinant SIRT1)?
**A.** 8.9 µM

**Q.** What about the “inhibition of HDAC6 (alpha tubulin acetylation)” value (HDAC6) of the same molecule?
**A.** inhibited the activity of HDAC6

**Q.** And the “anti-proliferative and apoptogenic action” value [2]?
**A.** confirmed

**Q.** And the p16INK4a gene expression (p16INK4a)?
**A.** de-silenced

**Q.** What about the “post-translational modifications on histone proteins” value (histone H3, H3K56) of the same molecule?
**A.** identification of a novel acetylated lysine residue in histone H3, H3K56

**Q.** What about the HDAC1 inhibition (HDAC1) of the same molecule?
**A.** blocks HDAC1 activity nearly quantitatively
